Six molecules from PubChem BioAssay (NCI) can be followed below.

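Exposure lasted 48 hours, with cells grown in 96-well plates and compounds tested at five concentrations. GI50: concentration for 50% inhibition of growth. At the TGI there is no net growth.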

Test in all cases: DTP human tumour cell line panel, 48 h
Test [1] has as its system TK-10 renal.
Test [2] has as its system BT-549 breast.
Test [3] relates to HOP-92 NSCLC.
Test [4] concerns NCI-H460 lung.
Test [5] relates to A498 renal.
The subject of test [6] is SK-MEL-2 melanoma.
Test [7] concerns HOP-62 NSCLC.
Test [8] concerns LOX IMVI melanoma.
Test [9] concerns NCI-H522 lung.
For test [10], the system named is U251 CNS.

As to `N#Cc1ccc(NC(=O)Nc2ccc(Oc3ccc(NC(=O)Nc4ccc(C#N)cc4)cc3)cc2)cc1`, the GI50 in test [1] was 23.2 µM; in test [2], 3.48 µM; in test [3], 13300 nM; in [4], 3.24 µM; in test [5], 15.9 µM; in test [6], 22.4 µM. The GI50 in test [7] was 3.06 µM; in [8], 15.7 µM; in test [9], 10.9 µM; in [10], 4.85 µM. The TGI is 89 µM in test [1]; 24.2 µM in [2]; 62.7 µM in test [3]; more than 100 µM in test [4]; 61.2 µM in [5]; 88.9 µM in [6]. Moreover, the TGI is 20.6 µM in test [7], more than 100 µM in [8], 95.5 µM in test [9] and 27.8 µM in test [10].

Consider `COC(=O)[C@]12CC[C@@H](C)[C@H](C)[C@@H]1C1=CC[C@@H]3[C@@]4(C)C/C(=N\O)[C@H](O)[C@@]5(C)COC(=C45)C[C@@]3(C)[C@]1(C)CC2`, for which the GI50 is 18.3 µM in test [1]; 15.7 µM in [2]; 2980 nM in test [3]; 3.29 µM in test [4]; 9.94 µM in test [5]; 13.4 µM in test [6]. Moreover, the GI50 in [7] was 12.3 µM; in [8], 4.6 µM; in test [9], 14.1 µM; in test [10], 3.02 µM. Further, the TGI in test [1] was 33.9 µM; in test [2], 34.8 µM; in test [3] it was 10.3 µM; in test [4], 10.7 µM; in [5], 21.9 µM; in test [6] it was 28.9 µM. Also, the TGI in test [7] was found to be 26.3 µM; in test [8], 17 µM; in test [9] it was 30.1 µM; in test [10], 9.79 µM.

Turning to `Cc1ccc(NC(=O)c2cccc(N(C)C)c2)cc1NC(=O)c1ccc(O)cc1`, the GI50 in test [1] is more than 70 µM; in test [2], more than 64 µM; in test [3] it was more than 52700 nM; in [4], 45.2 µM; in [5], more than 83.6 µM; in test [6], 14.1 µM. In addition, the GI50 in test [7] was 54.2 µM; in test [8] it was more than 62 µM; in test [9], 37.1 µM; in test [10], more than 68.8 µM. The TGI is more than 100 µM in [1]; more than 100 µM in [2]; more than 100 µM in test [3]; more than 100 µM in test [4]; more than 100 µM in test [5]; 39.2 µM in [6]. The TGI in [7] was more than 100 µM; in test [8], more than 100 µM; in test [9], more than 88.2 µM; in [10], more than 100 µM.

For `COc1ccc(-c2cc(=O)c3ccc(O)cc3o2)cc1OC`, the TGI in test [1], in test [2], in test [3], in test [4], in test [5] and in test [6] was more than 100 µM each time. Besides, the TGI in test [7], in test [8], in test [9] and in [10] was more than 100 µM each time.

`CN1CCN(C(=O)OCc2nc3c(N4CCOCC4)nc(Cl)nc3n2C)CC1`: the GI50 in test [1] was 1.59 µM; in test [2] it was 1.09 µM; in [3] it was 675 nM; in test [4], 1.64 µM; in [5] it was 1.15 µM; in test [6], 1.62 µM. In addition, the GI50 in [7] was 1.53 µM; in test [8] it was 0.579 µM; in [9], 1.1 µM; in test [10], 1.52 µM. Moreover, the TGI in [1] amounted to 3.05 µM; in test [2] it was 2.44 µM; in test [3] it was 2.23 µM; in test [4], 3.51 µM; in test [5], 2.46 µM; in [6], 3.45 µM. Further, the TGI was 4.92 µM in test [7], 1.99 µM in test [8], 2.74 µM in test [9] and 3.39 µM in test [10].

Turning to `O=C(N/N=C/c1ccccc1O)c1ccccc1Nc1ccnc(C(F)(F)F)c1`, the GI50 in [1] is 0.467 µM; in test [2], 0.527 µM; in test [3], 388 nM; in test [4] it was 0.255 µM; in [5], 18.1 µM; in test [6] it was 3.61 µM. For the same molecule, the GI50 in test [7] is 0.41 µM; in test [8], 0.279 µM; in [9] it was 5.74 µM; in test [10], 0.442 µM. The TGI in [1] was more than 100 µM; in test [2] it was 59 µM; in [3], 10.9 µM; in test [4], 11.2 µM; in [5], more than 91.6 µM; in [6], more than 60.5 µM. Also, the TGI in test [7] is 13.4 µM; in test [8], more than 54.7 µM; in test [9], more than 58.9 µM; in test [10], more than 100 µM.
